Consider 7 molecules from US6284774A, “4-Benzyl piperidine alkylsulfoxide heterocycles and their use as subtype-selective NMDA receptor antagonists” (priority 2000, dated 2001).

Experiment [1] relates to d-amphetamine-induced stimulation. The following applies: injected into rat nucleus accumbens vs striatum; cited from earlier work.
The target of a further experiment is T1, NRIA /2A (Rattus norvegicus, UniProt P35439+Q00959).
T1 construct: expressed in transfected cells; host or cells: Xenopus laevis oocytes (cRNA micro-injection)
In words: Electrophysiological assay at NMDA receptor subunits NR1A/2A expressed in Xenopus oocytes. Type of experiment: cell-based. The conditions noted are these: rat clones in Xenopus oocytes, currents activated by glutamate (100 μM) and glycine (1-100 μM). An excerpt: (§1) Many of the properties of native NMDA receptors are seen in recombinant homomeric NR1 receptors expressed in Xenopus oocytes. These properties are altered by the NR2 subunits. Recombinant NMDA receptors expressed in Xenopus oocytes have been studied by voltage-clamp recording, as has developmental and regional expression of the mRNAs encoding NMDA receptor subunits. Electrophysiological assays were utilized to characterize the actions of compounds at NMDA receptors expressed in Xenopus oocytes.
(§2) Electrophysiological Assays at NMDA receptor subunits.
(§3) cDNA clones encoding the NR1A, NR2A, NR2B, and NR2C rat NMDA receptor subtypes were used. […] The clones were transformed into appropriate host bacteria and plasmid preparations were made with conventional DNA purification techniques. A sample of each clone was linearized by restriction enzyme digestion and cRNA was synthesized with T3 RNA polymerase. The cRNA was diluted to 400 ng/μl and stored in 1 μl aliquots at -80° C. until injection.
(§4) The Xenopus Oocyte Expression System
(§5) Follicle-enclosed oocytes were micro-injected with 1:1 mixtures of NR1A:NR2A, 2B or 2C; infecting 1-10 ng of RNA encoding each receptor subunit. NR1A encoding RNA was injected alone at ~20 ng. Oocytes were stored in Barth's medium containing (in mM):NaCl, 88; KCl, 1; CaCl2, 0.41; Ca(NO3)2, 0.33; MgSo4, 0.82 NaHCO3, 2.4; HEPES 5, pH 7.4, with 0.11 mg/ml gentamicin sulphate. While oocytes were still surrounded by enveloping ovarian tissues the Barth's medium was supplemented with 0.1% bovine serum.
(§6) Electrical recordings were made using a conventional two-electrode voltage clamp (Dagan TEV-200) over periods ranging between 3-21 days following injection. […] Drugs were applied by bath perfusion. Using oocytes expressing different subunit combinations of NMDA receptor, NMDA currents were activated by co-application of glutamate (100 μM) and glycine (1-100 μM). Inhibitory potency of the novel antagonists was assessed on responses elicited by fixed concentrations of glutamate and glycine, by measuring reductions in current induced by progressively increasing concentrations of antagonist. Concentration-inhibition curves were fit with equation 1.
(§7) in which Icontrol is the current evoked by agonists alone, pIC50 =-log IC50, IC50 is the concentration of antagonist that produces half maximal inhibition, and n is the slope factor. […] For incomplete curves analysis by fitting was unreliable and IC50 values were calculated by simple regression over linear portions of the curves (Origin: Microcal Software).

Another experiment addresses T2, NR1A /2B (Rattus norvegicus, UniProt P35439+Q00960).
T2 construct: expressed in transfected cells; host or cells: Xenopus laevis oocytes (cRNA micro-injection)
In words: Electrophysiological assay at NMDA receptor subunits NR1A/2B expressed in Xenopus oocytes. It counts as cell-based. The conditions noted are these: rat clones in Xenopus oocytes, currents activated by glutamate (100 μM) and glycine (1-100 μM).
From the text: as §1, §2, §3, §4, §5, §6, §7

Another experiment addresses T3, NR1A /2C (Rattus norvegicus, UniProt P35439+Q00961).
T3 construct: expressed in transfected cells; host or cells: Xenopus laevis oocytes (cRNA micro-injection)
As to the kind of experiment: Electrophysiological assay at NMDA receptor subunits NR1A/2C expressed in Xenopus oocytes. Type of experiment: cell-based. The conditions noted are these: rat clones in Xenopus oocytes, currents activated by glutamate (100 μM) and glycine (1-100 μM).
From the text: as §1, §2, §3, §4, §5, §6, §7

The subject of experiment [2] is 6-Hydroxydopamine-lesioned rats. As to the kind of experiment: 6-OHDA Rat Assay: potentiation of contraversive rotation induced by L-DOPA methyl ester. It counts as in vivo, Sprague-Dawley rats. The conditions noted are these: po; L-DOPA methyl ester 10 mg/kg SC; total contraversive rotations over 6 hour vs L-DOPA only. The protocol:
Adult male Sprague-Dawley rats were anesthetized with chloral hydrate and unilateral lesions of the nigrostriatal dopamine system were accomplished by infusion of 8 μg of 6-hydroxydopamine HBr (6-OHDA) into the right medial forebrain bundle. […] A minimum of 3 weeks after surgery, the rotational behavior induced by apomorphine HCL 50 μg/kg subcutaneously (SC) was assessed. […] Rotational behavior was measured using an automatic rotometer system (Rotorat Rotational Activity System, MED Associates, Georgia, Vt.). Anti-parkinsonian activity was assessed as the ability of the compound to potentiate the contraversive rotation induced by L-DOPA methyl ester, 10 mg/kg SC, over a 6 hour period. Experiments were conducted using a crossover paradigm where each rat received either a vehicle plus L-DOPA, or the test compound plus L-DOPA, in randomized order. Rats were tested at 7 day intervals. In experiments in which the compound was tested orally, rats were food deprived for 16 hours. Statistical analysis between treatment groups were performed using a paired t-test.

The conditions of experiment [3]: variety of animal models highly predictive of human anxiety; cited from earlier work.
For experiment [4] the following is noted: at plasma levels leading to NMDA receptor antagonism; cited from earlier work.
Experiment [5] has as its system smooth muscle of the airway. The following applies: cited from earlier work.

T3 sequence (Q00961 20-1237, other chains not shown): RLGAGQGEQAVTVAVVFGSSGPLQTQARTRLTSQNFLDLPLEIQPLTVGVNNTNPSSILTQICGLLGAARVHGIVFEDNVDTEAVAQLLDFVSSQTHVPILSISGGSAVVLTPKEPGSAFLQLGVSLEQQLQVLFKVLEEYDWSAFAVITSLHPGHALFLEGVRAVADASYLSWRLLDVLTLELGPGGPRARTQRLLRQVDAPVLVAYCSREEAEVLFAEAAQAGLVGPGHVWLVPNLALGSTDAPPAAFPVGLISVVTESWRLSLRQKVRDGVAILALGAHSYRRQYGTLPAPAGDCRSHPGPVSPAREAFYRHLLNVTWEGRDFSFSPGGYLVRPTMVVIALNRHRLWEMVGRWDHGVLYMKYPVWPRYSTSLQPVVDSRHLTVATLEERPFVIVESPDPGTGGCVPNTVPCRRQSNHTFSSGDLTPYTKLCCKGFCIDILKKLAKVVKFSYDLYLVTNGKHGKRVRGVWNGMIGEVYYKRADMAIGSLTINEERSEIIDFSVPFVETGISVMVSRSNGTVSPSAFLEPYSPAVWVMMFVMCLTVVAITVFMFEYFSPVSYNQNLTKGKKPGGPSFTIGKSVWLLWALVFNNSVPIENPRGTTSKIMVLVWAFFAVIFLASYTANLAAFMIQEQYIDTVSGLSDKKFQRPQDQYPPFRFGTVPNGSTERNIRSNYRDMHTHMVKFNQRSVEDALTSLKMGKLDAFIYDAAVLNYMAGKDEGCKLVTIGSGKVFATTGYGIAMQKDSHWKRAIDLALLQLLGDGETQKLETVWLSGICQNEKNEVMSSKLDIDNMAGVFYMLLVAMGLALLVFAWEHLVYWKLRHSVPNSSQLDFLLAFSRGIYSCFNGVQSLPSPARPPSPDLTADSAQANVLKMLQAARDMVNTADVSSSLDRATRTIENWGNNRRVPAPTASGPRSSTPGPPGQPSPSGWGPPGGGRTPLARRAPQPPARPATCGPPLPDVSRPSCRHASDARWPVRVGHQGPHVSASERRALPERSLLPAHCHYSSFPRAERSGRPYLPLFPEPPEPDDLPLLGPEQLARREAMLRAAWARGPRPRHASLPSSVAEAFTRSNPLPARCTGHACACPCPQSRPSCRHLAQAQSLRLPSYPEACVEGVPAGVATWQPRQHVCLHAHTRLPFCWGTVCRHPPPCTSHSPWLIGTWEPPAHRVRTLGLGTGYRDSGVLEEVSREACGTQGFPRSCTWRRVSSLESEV
T1 sequence (Q00959 23-1464, other chains not shown): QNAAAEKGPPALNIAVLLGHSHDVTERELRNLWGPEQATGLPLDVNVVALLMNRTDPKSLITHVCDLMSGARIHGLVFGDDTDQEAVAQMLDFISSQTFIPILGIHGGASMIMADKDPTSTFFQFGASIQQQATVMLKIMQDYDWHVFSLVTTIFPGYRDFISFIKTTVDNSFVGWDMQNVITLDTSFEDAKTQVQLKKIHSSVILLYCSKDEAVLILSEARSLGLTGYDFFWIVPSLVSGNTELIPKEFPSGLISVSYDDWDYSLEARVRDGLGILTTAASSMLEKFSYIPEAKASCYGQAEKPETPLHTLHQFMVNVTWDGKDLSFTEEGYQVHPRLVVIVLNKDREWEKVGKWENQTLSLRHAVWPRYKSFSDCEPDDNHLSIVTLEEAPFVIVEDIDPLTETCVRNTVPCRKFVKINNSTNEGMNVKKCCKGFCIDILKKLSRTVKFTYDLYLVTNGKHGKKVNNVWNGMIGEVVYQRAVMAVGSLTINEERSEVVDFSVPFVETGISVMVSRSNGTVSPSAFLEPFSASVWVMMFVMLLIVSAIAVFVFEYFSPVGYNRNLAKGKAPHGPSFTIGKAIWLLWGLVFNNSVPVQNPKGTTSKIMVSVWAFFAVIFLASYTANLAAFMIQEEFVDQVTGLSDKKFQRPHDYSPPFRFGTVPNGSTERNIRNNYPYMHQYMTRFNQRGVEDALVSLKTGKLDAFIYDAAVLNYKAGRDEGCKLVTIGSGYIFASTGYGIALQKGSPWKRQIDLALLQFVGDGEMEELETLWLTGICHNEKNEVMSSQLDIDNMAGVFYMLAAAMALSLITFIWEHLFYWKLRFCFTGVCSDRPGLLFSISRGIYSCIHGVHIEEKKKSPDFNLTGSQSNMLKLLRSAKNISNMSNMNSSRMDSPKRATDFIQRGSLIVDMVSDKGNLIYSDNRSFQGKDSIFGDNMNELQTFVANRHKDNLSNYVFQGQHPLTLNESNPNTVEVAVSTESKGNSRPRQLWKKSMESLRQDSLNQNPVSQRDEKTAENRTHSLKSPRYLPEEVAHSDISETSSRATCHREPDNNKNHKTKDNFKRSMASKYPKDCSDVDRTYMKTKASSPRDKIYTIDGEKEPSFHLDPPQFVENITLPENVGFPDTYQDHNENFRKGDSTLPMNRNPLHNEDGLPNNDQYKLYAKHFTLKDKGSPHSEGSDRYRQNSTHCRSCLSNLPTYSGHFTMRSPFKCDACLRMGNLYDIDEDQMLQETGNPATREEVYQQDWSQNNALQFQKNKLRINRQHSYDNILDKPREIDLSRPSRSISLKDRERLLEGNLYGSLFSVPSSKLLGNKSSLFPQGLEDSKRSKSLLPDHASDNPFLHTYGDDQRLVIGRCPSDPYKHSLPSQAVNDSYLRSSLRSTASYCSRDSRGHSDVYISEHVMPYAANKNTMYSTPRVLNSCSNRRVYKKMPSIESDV
T2 sequence (Q00960 27-1482, other chains not shown): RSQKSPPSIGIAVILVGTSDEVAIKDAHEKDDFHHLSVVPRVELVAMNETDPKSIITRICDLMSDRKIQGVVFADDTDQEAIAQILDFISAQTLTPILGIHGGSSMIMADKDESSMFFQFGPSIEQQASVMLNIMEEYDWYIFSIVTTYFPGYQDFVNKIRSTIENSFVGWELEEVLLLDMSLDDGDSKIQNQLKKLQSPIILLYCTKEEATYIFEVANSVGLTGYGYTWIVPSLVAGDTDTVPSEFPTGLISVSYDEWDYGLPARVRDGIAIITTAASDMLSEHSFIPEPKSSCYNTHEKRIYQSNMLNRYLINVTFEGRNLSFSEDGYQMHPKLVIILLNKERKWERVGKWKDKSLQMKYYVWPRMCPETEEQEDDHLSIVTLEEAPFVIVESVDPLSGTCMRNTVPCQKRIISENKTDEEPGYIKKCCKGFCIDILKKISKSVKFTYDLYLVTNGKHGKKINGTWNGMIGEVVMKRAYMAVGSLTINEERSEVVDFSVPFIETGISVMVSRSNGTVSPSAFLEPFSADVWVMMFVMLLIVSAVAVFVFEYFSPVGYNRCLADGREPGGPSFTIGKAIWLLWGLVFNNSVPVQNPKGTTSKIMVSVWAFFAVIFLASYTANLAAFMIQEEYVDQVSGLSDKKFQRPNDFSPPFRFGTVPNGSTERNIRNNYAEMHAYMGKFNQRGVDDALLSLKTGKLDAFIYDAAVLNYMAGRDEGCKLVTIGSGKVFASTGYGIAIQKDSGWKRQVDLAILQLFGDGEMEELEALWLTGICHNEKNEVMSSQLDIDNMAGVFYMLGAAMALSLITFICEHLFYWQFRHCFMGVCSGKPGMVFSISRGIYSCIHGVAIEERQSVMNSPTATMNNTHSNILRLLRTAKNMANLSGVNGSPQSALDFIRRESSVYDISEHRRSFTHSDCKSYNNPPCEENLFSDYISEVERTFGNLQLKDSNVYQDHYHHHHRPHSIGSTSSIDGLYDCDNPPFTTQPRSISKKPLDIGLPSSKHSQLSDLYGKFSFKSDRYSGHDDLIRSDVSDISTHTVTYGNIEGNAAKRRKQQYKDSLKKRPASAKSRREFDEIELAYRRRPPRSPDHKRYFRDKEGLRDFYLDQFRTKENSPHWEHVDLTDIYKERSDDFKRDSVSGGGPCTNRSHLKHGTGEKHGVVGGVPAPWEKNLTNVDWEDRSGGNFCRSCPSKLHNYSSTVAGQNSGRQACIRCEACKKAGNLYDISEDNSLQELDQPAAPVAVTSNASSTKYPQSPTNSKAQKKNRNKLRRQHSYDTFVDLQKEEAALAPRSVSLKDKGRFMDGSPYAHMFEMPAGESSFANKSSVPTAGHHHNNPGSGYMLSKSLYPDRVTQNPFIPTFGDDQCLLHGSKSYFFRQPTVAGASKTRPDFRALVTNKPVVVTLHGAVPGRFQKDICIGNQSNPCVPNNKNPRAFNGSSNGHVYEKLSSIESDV

For `O=C(O)c1cc(O)c2c(Cl)cc(Cl)cc2n1` [5,7-dichlorokynurenic acid], in experiment [1], the “antagonism of d-amphetamine-induced stimulation” value is “selectively antagonize d-amphetamine-induced stimulation when injected into rat nucleus accumbens but not in striatum”.

`N[C@@H]1CCN(O)C1=O` [(+) HA-966]: the “antagonism of d-amphetamine-induced stimulation” value in experiment [1] was “selectively antagonize d-amphetamine-induced stimulation when injected into rat nucleus accumbens but not in striatum”.

As usually defined, the IC50 is the concentration that gives 50% inhibition. For `O=c1[nH]c2cc(Cl)c([S+]([O-])CCN3CCC(Cc4ccc(F)cc4)CC3)cc2o1` (stereo not shown) [Example 18, 5-Chloro-6-{2-[4-(4-fluorobenzyl)piperidin-1-yl]ethanesulfinyl}-3H-benzooxazol-2-one], the IC50 on NRIA /2A is 35 µM; at NR1A /2B, 110 nM; on NR1A /2C it was greater than 300 µM. Further, in experiment [2], the “6-OHDA rat MED (minimum effective dose)” value is reported as greater than 10 mg/kg.

Turning to `C[C@]12N[C@H](Cc3ccccc31)c1ccccc12` [MK801], in experiment [3], the “effectiveness in animal models of anxiety” value is listed as “effective in a variety of animal models of anxiety”.

Take `NC12CC3CC(CC(C3)C1)C2` [amantadine]: the antiparkinsonian-like activity entry in experiment [4] is recorded as “showed antiparkinsonian-like activity in animals”.

On to `CNC1(c2ccccc2Cl)CCCCC1=O` (stereo not shown) [ketamine], for which the “ability to relax the smooth muscle of the airway” value in experiment [5] is “relax the smooth muscle of the airway”.

For `CC12CC3CC(C)(C1)CC(N)(C3)C2` [memantine], the antiparkinsonian-like activity result in experiment [4] is listed as “showed antiparkinsonian-like activity in animals”.
